From patent US12138320B2, “Composition and methods for tumor imaging and treatment” (The University of Chicago, priority 2020, dated 2024)

Assays:
NCEH1 = target: T1, NCEH1 (Homo sapiens, UniProt Q6PIU2); experiment: Gel-based competitive ABPP (FP-Rho) of cancer cells treated in situ (live cells); format: cell-based; conditions: live cells
T1 construct: serine hydrolase activity in membrane proteome fractions of MDA-MB231 breast cancer cells treated with the indicated concentrations; endogenous in cells; host or cells: PC3 prostate cancer cells; MDA-MB231 breast cancer cells
T1 sequence (Q6PIU2 1-408): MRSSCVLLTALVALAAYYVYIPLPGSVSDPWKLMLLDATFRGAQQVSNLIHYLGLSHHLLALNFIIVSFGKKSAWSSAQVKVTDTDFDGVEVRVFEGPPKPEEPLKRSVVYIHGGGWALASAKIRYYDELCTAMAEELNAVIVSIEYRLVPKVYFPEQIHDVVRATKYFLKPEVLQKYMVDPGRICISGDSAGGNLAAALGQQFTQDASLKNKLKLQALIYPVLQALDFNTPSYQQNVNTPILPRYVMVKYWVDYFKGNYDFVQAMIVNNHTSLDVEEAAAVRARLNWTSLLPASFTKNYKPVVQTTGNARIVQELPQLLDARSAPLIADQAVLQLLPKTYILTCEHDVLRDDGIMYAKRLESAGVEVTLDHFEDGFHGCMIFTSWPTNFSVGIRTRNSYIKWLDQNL
Procedure: (§1) Proteome Preparation: Human PC3 and MDA-MB231 cells were grown in Roswell Park Memorial Institute (RPMI) medium and Dulbecco's Modified Eagle Medium (DMEM), respectively, supplemented with 10% fetal bovine serum (FBS) and 2 mM L-glutamine, and cultured in a humidified 5% CO2 incubator at 37° C. Cells were washed twice with phosphate buffered saline (PBS, pH 7.5), collected by scraping, resuspended in 0.2 ml PBS, sonicated, and fractionated via centrifugation (100,000×g, 45 min) into a pellet (containing membrane proteins) and supernatant (containing soluble proteins). For murine proteomes, mouse tissues were Dounce-homogenized on ice in cold PBS, followed by a low-speed spin (1,400×g, 5 min) to remove debris. After sonication, the membrane and soluble proteomes were fractionated as described above. All sample pellets were washed and resuspended in PBS via sonication. Protein concentrations were determined using a Bradford protein assay kit (Bio-Rad, Hercules, California, United States of America)). Samples were stored at −80° C. until use.
Cellular JW199 Treatments: JW199 was dissolved in dimethyl sulfoxide (DMSO) vehicle, which was diluted into media or buffer before addition to cells or proteomes, respectively. For in vitro proteome experiments, the final DMSO concentration was 4%. For live cell (in situ) treatments, 2×10^6 cells were seeded in 6 cm dishes (100% confluency) 24 hours prior to JW199 treatment in serum-free media. At the end of the experiment, cells were washed and collected, as described above, for gel-based activity profiling.
Gel-based Activity Profiling: Cell lysates were treated with 1 μM fluorophosphonate-rhodamine (FP-rho) for 30 min at room temperature (50 μL total reaction volume). Reactions were quenched with one volume of standard 4× sodium dodecyl sulfate/polyacrylamide gel electrophoresis (SDS/PAGE) reducing sample buffer, resolved on 10% acrylamide SDS/PAGE gels, and visualized in-gel with a fluorescence scanner sold under the tradename CHEMIDOC™ MP (Bio-Rad, Hercules, California, United States of America). Densitometric quantification of band intensities were used to calculate the percent inhibition via JW199. 50% inhibitory concentration (IC50) values were determined from dose-response curves constructed in GraphPad Prism software from three independent replicates for each inhibitor concentration. For competitive ABPP with JW576, tumor lysates were treated with 1 μM JW576 for 30 min at 37° C. (50 μL total reaction volume). Competitive ABPP was then conducted as described above. NCEH1 activity was calculated by densitometric quantification (ImageJ software; National Institutes of Health (NIH), Bethesda, Maryland, United States of America) of JW576-labeled band intensity (BODIPY fluorescence) from three independent replicates.

[1] = system: other detected serine hydrolase targets; experiment: Family-wide gel-based profiling of serine hydrolases in MDA-MB231 and PC3 cells (selectivity); format: cell-based, human; conditions: live cells
Procedure: as §1, with “For murine proteomes, mouse tissues were Dounce-homogenized on ice in cold PBS, followed by a low-speed spin (1,400×g, 5 min) to remove debris. After sonication, the membrane and soluble proteomes were fractionated as described above. All sample pellets were washed and resuspended in PBS via sonication.” left out, “Samples were stored at −80° C. until use.” left out
Gel-based Activity Profiling: Cell lysates were treated with 1 μM fluorophosphonate-rhodamine (FP-rho) for 30 min at room temperature (50 μL total reaction volume). Reactions were quenched with one volume of standard 4× sodium dodecyl sulfate/polyacrylamide gel electrophoresis (SDS/PAGE) reducing sample buffer, resolved on 10% acrylamide SDS/PAGE gels, and visualized in-gel with a fluorescence scanner sold under the tradename CHEMIDOC™ MP (Bio-Rad, Hercules, California, United States of America). Densitometric quantification of band intensities were used to calculate the percent inhibition via JW199. […]

[2] = system: MDA-MB231 human breast cancer xenografts; experiment: PET/CT imaging and ex vivo biodistribution in mice bearing MDA-MB231 xenografts; design: species or system mouse
Procedure: In vivo microPET/CT imaging: All imaging was performed by the Integrated Small Animal Imaging Research Resource (iSAIRR) at the University of Chicago (Chicago, Illinois, United States of America) on a β-Cube and X-Cube (Molecubes NV, Ghent, Belgium). Athymic nude mice (males and females, aged 6 to 8 weeks; HSD strain, Harlan-Envigo, Indianapolis, Indiana, United States of America) were anesthetized via inhalation with 1.5-2% isoflurane and injected with approximately 150 μCi (5.55 Megabecquerel (MBq)) of [^18F]JW199 in 150 μL of physiologic saline through the lateral tail vein, followed by awake incubation for 1 hour and 45 minutes. MicroCT images were acquired using the general purpose protocol, with energy of 50 KeV and a tube current of 100 μA. Respiration rate and body temperature of the animal were constantly monitored during the entire scanning period with the p-Cube and X-Cube onboard monitoring system. […]
Dynamic reconstruction was performed using a three-dimensional OSEM algorithm with 400 μm isometric voxel size. […] 3D regions of interest (ROIs) were drawn and standardized uptake values (SUVs) and percent injected dose per cubic centimeter of tissue (% ID/cc) were calculated for each ROI and time point. % ID/cc was calculated as a ratio of tissue radioactivity concentration (mCi/g) at time of scan to total injected activity (millicurie (mCi)) at time of scan. […]

Compound: CC(C)c1ccccc1OC(=O)NCCc1ccc(OCC[18F])cc1 [[^18F]JW199, fluorine-18-labeled 2-isopropylphenyl-(4-(2-fluoroethoxy)phenethyl)carbamate]
- concentrations at which active NCEH1 is labeled in live cells (NCEH1): nM concentrations
- selectivity over other detected serine hydrolase targets [1]: greater than 1,000 fold
- radiotracer accumulation in tumor ([2]; 150 μCi i.v., dynamic PET/CT): radiotracer accumulation in breast tumor xenograft cells
- total radioactivity in bulk tumor tissue relative to surrounding muscle ([2]; ex vivo quantitation, 3 hours after injection, breast cancer model): higher total radioactivity
